Source: publication PMC12300041, “Tricyclic Isatin Derivatives as Anti-Inflammatory Compounds with High Kinase Binding Affinity” (Molecules, 2025)

Key:
Assay in all cases: KINOMEscan
Format in all cases: binding
[1] = target: T1, AAK1 (Homo sapiens, UniProt Q2M2I8)
T1 construct: purchased Eurofins DiscoverX KINOMEscan
Procedure, shortened: (§1)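 Kd determination: 12-pt half-log series, top 33 μM; 1 h binding, RT; unbound kinase pulled down on immobilized ligand, measured by qPCR.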

[2] = target: T2, ABL1 (E255K)-P (Homo sapiens, UniProt P00519, E255K)
T2 construct: purchased Eurofins DiscoverX KINOMEscan
Procedure, shortened: as §1

[3] = target: T3, ABL1 (M351T)-P (Homo sapiens, UniProt P00519, M351T)
T3 construct: purchased Eurofins DiscoverX KINOMEscan
Procedure, shortened: as §1

[4] = target: T4, ACVR1B (Homo sapiens, UniProt P36896)
T4 construct: purchased Eurofins DiscoverX KINOMEscan
Procedure, shortened: (§2)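 Quantitative PCR measured kinase retained on an immobilized affinity ligand, i.e. kinase not bound by test compound, after 1 h binding at room temperature. Kd came from 12 half-log concentrations up to 33 μM.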

[5] = target: T5, AKT2 (Homo sapiens, UniProt P31751)
T5 construct: purchased Eurofins DiscoverX KINOMEscan
Procedure, shortened: as §1

[6] = target: T6, AURKC (Homo sapiens, UniProt Q9UQB9)
T6 construct: purchased Eurofins DiscoverX KINOMEscan
Procedure, shortened: as §2

[7] = target: T7, CAMK1G (Homo sapiens, UniProt Q96NX5)
T7 construct: purchased Eurofins DiscoverX KINOMEscan
Procedure, shortened: as §1

[8] = target: T8, CAMK2G (Homo sapiens, UniProt Q13555)
T8 construct: purchased Eurofins DiscoverX KINOMEscan
Procedure, shortened: as §2

[9] = target: T9, CAMKK2 (Homo sapiens, UniProt Q96RR4)
T9 construct: purchased Eurofins DiscoverX KINOMEscan
Procedure, shortened: as §2

[10] = target: T10, CDC2L2 (Homo sapiens, UniProt Q9UQ88)
T10 construct: purchased Eurofins DiscoverX KINOMEscan
Procedure, shortened: as §1

[11] = target: T11, CHEK1 (Homo sapiens, UniProt O14757)
T11 construct: purchased Eurofins DiscoverX KINOMEscan
Procedure, shortened: as §1

[12] = target: T12, CSNK1E (Homo sapiens, UniProt P49674)
T12 construct: purchased Eurofins DiscoverX KINOMEscan
Procedure, shortened: as §2

[13] = target: T13, CSNK1G3 (Homo sapiens, UniProt Q9Y6M4)
T13 construct: purchased Eurofins DiscoverX KINOMEscan
Procedure, shortened: as §1

[14] = target: T14, DCAMKL1 (Homo sapiens, UniProt O15075)
T14 construct: purchased Eurofins DiscoverX KINOMEscan
Procedure, shortened: as §1

[15] = target: T15, DCAMKL2 (Homo sapiens, UniProt Q8N568)
T15 construct: purchased Eurofins DiscoverX KINOMEscan
Procedure, shortened: as §2

[16] = target: T16, EGFR (G719S) (Homo sapiens, UniProt P00533, G719S)
T16 construct: purchased Eurofins DiscoverX KINOMEscan
Procedure, shortened: as §1

[17] = target: T17, EPHA8 (Homo sapiens, UniProt P29322)
T17 construct: purchased Eurofins DiscoverX KINOMEscan
Procedure, shortened: as §1

[18] = target: T18, FES (Homo sapiens, UniProt P07332)
T18 construct: purchased Eurofins DiscoverX KINOMEscan
Procedure, shortened: as §1

[19] = target: T19, FGFR1 (Homo sapiens, UniProt P11362)
T19 construct: purchased Eurofins DiscoverX KINOMEscan
Procedure, shortened: as §1

[20] = target: T20, GRK4 (Homo sapiens, UniProt P32298)
T20 construct: purchased Eurofins DiscoverX KINOMEscan
Procedure, shortened: as §1

[21] = target: T21, INSR (Homo sapiens, UniProt P06213)
T21 construct: purchased Eurofins DiscoverX KINOMEscan
Procedure, shortened: as §2

[22] = target: T22, INSRR (Homo sapiens, UniProt P14616)
T22 construct: purchased Eurofins DiscoverX KINOMEscan
Procedure, shortened: as §1

[23] = target: T23, JAK2 (JH1domain-cat.) (Homo sapiens, UniProt O60674)
T23 construct: JAK2 (JH1domain-cat.); purchased Eurofins DiscoverX KINOMEscan
Procedure, shortened: as §2

[24] = target: T24, LOK (Homo sapiens, UniProt O94804)
T24 construct: purchased Eurofins DiscoverX KINOMEscan
Procedure, shortened: as §1

[25] = target: T25, MAP4K2 (Homo sapiens, UniProt Q12851)
T25 construct: purchased Eurofins DiscoverX KINOMEscan
Procedure, shortened: as §1

[26] = target: T26, MAP4K4 (Homo sapiens, UniProt O95819)
T26 construct: purchased Eurofins DiscoverX KINOMEscan
Procedure, shortened: as §1

[27] = target: T27, NDR1 (Homo sapiens, UniProt Q15208)
T27 construct: purchased Eurofins DiscoverX KINOMEscan
Procedure, shortened: as §1

[28] = target: T28, NEK1 (Homo sapiens, UniProt Q96PY6)
T28 construct: purchased Eurofins DiscoverX KINOMEscan
Procedure, shortened: as §1

[29] = target: T29, NEK11 (Homo sapiens, UniProt Q8NG66)
T29 construct: purchased Eurofins DiscoverX KINOMEscan
Procedure, shortened: as §2

[30] = target: T30, PLK3 (Homo sapiens, UniProt Q9H4B4)
T30 construct: purchased Eurofins DiscoverX KINOMEscan
Procedure, shortened: as §2

[31] = target: T31, RET (V804L) (Homo sapiens, UniProt P07949, V804L)
T31 construct: purchased Eurofins DiscoverX KINOMEscan
Procedure, shortened: as §2

[32] = target: T32, RSK2 (Kin. Dom.2-C-term.) (Homo sapiens, UniProt P51812)
T32 construct: RSK2 (Kin. Dom.2-C-term.); purchased Eurofins DiscoverX KINOMEscan
Procedure, shortened: as §1

[33] = target: T33, RSK4 (Kin. Dom.2-C-term.) (Homo sapiens, UniProt Q9UK32)
T33 construct: RSK4 (Kin. Dom.2-C-term.); purchased Eurofins DiscoverX KINOMEscan
Procedure, shortened: as §1

[34] = target: T34, SIK (Homo sapiens, UniProt P57059)
T34 construct: purchased Eurofins DiscoverX KINOMEscan
Procedure, shortened: as §2

[35] = target: T35, VEGFR2 (Homo sapiens, UniProt P35968)
T35 construct: purchased Eurofins DiscoverX KINOMEscan
Procedure, shortened: as §2

[36] = target: T36, WNK1 (Homo sapiens, UniProt Q9H4A3)
T36 construct: purchased Eurofins DiscoverX KINOMEscan
Procedure, shortened: as §2

[37] = target: T37, YSK1 (Homo sapiens, UniProt O00506)
T37 construct: purchased Eurofins DiscoverX KINOMEscan
Procedure, shortened: as §1

[38] = target: T38, p38-β (Homo sapiens, UniProt Q15759)
T38 construct: purchased Eurofins DiscoverX KINOMEscan
Procedure, shortened: as §1

T27 sequence (Q15208 whole entry): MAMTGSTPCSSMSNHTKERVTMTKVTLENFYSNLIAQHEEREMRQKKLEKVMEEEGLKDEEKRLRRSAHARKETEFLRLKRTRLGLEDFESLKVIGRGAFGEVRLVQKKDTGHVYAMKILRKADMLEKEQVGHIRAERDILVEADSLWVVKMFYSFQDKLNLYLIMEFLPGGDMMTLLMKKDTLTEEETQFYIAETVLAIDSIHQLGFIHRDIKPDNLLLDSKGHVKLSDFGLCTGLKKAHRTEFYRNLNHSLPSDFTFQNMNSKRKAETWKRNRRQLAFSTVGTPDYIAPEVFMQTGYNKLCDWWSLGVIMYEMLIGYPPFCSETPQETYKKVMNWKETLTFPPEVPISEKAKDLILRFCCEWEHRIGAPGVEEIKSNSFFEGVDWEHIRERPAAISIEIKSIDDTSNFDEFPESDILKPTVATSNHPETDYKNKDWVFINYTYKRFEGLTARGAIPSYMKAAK
T4 sequence (P36896 24-505): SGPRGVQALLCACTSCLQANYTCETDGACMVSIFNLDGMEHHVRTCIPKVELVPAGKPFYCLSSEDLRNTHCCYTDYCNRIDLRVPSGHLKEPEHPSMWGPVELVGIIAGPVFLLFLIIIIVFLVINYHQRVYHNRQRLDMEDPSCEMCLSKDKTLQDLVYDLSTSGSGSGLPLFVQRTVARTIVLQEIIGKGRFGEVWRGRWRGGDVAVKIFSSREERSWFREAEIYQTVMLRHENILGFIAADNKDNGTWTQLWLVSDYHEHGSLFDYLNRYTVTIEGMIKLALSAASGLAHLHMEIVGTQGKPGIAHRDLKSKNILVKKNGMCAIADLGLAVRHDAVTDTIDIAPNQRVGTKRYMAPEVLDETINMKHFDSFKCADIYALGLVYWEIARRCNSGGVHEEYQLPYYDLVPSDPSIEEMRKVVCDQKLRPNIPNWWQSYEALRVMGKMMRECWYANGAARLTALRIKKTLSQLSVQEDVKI
T10 sequence (Q9UQ88 whole entry): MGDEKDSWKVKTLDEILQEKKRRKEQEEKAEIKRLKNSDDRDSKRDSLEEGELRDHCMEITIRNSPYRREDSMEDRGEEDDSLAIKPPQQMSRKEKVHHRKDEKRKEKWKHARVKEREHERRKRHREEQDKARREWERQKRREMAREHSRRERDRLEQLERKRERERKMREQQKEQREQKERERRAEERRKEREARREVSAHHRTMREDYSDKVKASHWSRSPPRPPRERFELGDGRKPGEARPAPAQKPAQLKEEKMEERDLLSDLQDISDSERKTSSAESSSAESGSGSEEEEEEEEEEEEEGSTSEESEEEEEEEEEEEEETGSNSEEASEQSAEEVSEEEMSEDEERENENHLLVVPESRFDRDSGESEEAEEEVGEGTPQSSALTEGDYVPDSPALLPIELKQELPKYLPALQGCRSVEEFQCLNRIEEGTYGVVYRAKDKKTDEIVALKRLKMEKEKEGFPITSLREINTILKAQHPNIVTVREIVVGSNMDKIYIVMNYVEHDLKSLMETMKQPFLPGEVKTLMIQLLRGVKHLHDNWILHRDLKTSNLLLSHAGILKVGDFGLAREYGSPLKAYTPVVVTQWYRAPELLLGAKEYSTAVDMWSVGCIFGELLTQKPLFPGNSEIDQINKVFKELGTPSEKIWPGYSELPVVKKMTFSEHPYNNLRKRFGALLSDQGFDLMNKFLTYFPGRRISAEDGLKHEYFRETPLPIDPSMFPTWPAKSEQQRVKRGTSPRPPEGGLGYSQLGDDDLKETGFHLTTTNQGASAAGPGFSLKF
T8 sequence (Q13555 whole entry): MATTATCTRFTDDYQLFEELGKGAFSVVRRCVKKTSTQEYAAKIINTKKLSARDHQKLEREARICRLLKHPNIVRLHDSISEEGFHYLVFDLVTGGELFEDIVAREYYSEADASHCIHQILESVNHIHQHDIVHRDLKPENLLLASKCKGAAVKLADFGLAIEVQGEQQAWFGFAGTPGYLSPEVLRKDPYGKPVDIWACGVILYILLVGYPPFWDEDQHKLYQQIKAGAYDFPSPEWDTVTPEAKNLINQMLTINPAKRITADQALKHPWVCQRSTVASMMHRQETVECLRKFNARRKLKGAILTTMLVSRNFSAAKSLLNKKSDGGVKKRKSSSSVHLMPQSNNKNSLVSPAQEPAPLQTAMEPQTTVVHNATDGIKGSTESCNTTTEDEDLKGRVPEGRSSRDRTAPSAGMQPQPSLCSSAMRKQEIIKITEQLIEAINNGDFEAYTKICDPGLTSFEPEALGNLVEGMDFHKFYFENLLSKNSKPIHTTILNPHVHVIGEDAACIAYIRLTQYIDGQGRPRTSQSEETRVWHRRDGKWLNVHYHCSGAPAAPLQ
T1 sequence (Q2M2I8 whole entry): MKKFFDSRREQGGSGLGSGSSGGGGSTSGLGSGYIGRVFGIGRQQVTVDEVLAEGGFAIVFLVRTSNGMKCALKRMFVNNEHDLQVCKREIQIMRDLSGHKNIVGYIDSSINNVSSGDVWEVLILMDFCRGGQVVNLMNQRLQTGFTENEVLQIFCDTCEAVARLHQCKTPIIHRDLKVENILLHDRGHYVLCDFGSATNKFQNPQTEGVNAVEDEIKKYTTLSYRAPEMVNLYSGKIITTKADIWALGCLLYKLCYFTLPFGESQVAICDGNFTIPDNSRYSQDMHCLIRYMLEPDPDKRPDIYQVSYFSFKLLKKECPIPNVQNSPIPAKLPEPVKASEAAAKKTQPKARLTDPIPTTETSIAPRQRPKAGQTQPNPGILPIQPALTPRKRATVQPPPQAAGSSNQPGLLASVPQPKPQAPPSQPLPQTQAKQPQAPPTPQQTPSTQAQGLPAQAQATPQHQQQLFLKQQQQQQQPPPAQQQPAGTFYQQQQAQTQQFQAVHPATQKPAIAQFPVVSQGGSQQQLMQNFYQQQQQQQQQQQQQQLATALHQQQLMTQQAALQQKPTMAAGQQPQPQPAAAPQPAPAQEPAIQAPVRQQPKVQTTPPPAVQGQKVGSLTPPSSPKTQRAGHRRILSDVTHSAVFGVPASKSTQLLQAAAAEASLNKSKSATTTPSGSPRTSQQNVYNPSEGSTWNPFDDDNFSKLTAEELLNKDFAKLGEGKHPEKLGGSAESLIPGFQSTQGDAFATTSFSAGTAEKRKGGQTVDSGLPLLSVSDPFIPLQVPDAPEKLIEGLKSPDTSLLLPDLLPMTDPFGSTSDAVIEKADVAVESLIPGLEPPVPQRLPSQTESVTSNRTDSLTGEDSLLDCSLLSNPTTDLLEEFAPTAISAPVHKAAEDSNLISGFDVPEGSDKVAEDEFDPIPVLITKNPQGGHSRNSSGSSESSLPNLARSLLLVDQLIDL
T29 sequence (Q8NG66 whole entry): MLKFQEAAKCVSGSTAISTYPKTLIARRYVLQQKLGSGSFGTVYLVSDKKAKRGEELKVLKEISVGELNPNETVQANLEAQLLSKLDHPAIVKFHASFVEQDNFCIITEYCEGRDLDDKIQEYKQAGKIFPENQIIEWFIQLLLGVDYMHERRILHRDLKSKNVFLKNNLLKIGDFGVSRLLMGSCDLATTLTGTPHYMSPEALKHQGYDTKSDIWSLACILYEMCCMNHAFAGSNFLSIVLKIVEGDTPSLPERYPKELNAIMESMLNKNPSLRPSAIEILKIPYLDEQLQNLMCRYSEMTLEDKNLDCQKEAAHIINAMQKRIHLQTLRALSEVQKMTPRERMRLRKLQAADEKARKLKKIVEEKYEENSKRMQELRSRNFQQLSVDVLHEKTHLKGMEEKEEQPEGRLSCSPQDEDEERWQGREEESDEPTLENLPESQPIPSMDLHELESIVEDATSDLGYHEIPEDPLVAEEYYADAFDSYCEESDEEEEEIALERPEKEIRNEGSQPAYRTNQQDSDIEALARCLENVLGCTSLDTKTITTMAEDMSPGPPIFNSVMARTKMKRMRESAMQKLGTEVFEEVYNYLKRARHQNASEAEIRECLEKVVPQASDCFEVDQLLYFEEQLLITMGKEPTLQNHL
T37 sequence (O00506 whole entry): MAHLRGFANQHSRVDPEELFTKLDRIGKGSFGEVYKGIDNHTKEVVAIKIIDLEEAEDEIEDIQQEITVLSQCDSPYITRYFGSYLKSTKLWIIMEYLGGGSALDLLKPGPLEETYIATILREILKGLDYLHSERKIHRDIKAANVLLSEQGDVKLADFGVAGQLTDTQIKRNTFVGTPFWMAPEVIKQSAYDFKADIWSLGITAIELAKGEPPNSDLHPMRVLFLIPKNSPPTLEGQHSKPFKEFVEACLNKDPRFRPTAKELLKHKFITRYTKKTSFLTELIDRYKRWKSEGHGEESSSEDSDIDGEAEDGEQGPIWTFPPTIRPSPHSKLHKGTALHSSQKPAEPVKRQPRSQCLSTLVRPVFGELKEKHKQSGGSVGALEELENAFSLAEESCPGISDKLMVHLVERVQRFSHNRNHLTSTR
T11 sequence (O14757 whole entry): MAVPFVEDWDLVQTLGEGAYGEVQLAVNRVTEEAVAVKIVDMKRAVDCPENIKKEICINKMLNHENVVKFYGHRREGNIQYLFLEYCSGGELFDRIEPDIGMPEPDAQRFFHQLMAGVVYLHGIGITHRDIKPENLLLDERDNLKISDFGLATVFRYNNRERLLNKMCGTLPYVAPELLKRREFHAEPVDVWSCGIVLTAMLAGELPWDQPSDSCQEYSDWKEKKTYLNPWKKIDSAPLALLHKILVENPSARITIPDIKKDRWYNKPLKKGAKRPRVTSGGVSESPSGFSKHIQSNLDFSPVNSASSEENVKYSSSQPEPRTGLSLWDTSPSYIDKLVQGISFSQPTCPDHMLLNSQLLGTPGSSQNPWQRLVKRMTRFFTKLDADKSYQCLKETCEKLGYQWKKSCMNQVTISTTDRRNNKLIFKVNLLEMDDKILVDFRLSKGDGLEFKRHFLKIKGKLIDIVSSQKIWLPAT

**Q.** Which inhibition at 10 µM [1] does the source give for `O=C1Nc2c(cc([N+](=O)[O-])c3c2CCCC3)C1=NO` [Compound 5d, 3-(Hydroxyimino)-5-nitro-1,3,6,7,8,9-hexahydro-2H-benzo[g]indol-2-one] here?
**A.** 91.8%

**Q.** And the inhibition at 10 µM [2]?
**A.** 57%

**Q.** What about the inhibition at 10 µM [3] of the same molecule?
**A.** 5%

**Q.** And the inhibition at 10 µM [4]?
**A.** 10%

**Q.** What about the inhibition at 10 µM [5] of the same molecule?
**A.** 0%

**Q.** And the inhibition at 10 µM [6]?
**A.** 39%

**Q.** What about the inhibition at 10 µM [7] of the same molecule?
**A.** 29%

**Q.** And the inhibition at 10 µM [8]?
**A.** 25%

**Q.** And the inhibition at 10 µM [9]?
**A.** 56%

**Q.** What about the inhibition at 10 µM [10] of the same molecule?
**A.** 0%

**Q.** What about the inhibition at 10 µM [11] of the same molecule?
**A.** 2%

**Q.** And the inhibition at 10 µM [12]?
**A.** 80%

**Q.** And the inhibition at 10 µM [13]?
**A.** 83%

**Q.** And the inhibition at 10 µM [14]?
**A.** 29%

**Q.** What about the inhibition at 10 µM [15] of the same molecule?
**A.** 0%

**Q.** And the inhibition at 10 µM [16]?
**A.** 13%

**Q.** And the inhibition at 10 µM [17]?
**A.** 0%

**Q.** What about the inhibition at 10 µM [18] of the same molecule?
**A.** 0%

**Q.** What about the inhibition at 10 µM [19] of the same molecule?
**A.** 5%

**Q.** What about the inhibition at 10 µM [20] of the same molecule?
**A.** 34%

**Q.** And the inhibition at 10 µM [21]?
**A.** 1%

**Q.** And the inhibition at 10 µM [22]?
**A.** 4%

**Q.** And the inhibition at 10 µM [23]?
**A.** 42%

**Q.** And the inhibition at 10 µM [24]?
**A.** 73%

**Q.** What about the inhibition at 10 µM [25] of the same molecule?
**A.** 53%

**Q.** What about the inhibition at 10 µM [26] of the same molecule?
**A.** 47%

**Q.** What about the inhibition at 10 µM [27] of the same molecule?
**A.** 34%

**Q.** And the inhibition at 10 µM [28]?
**A.** 31%

**Q.** What about the inhibition at 10 µM [29] of the same molecule?
**A.** 46%

**Q.** And the inhibition at 10 µM [30]?
**A.** 51%

**Q.** And the inhibition at 10 µM [31]?
**A.** 2%

**Q.** And the inhibition at 10 µM [32]?
**A.** 0%

**Q.** And the inhibition at 10 µM [33]?
**A.** 36%

**Q.** What about the inhibition at 10 µM [34] of the same molecule?
**A.** 9%

**Q.** And the inhibition at 10 µM [35]?
**A.** 39%

**Q.** What about the inhibition at 10 µM [36] of the same molecule?
**A.** 12%

**Q.** What about the inhibition at 10 µM [37] of the same molecule?
**A.** 10%

**Q.** What about the inhibition at 10 µM [38] of the same molecule?
**A.** 15%
